Data: patent US20230255953A1, “USE OF ROLUPERIDONE IN PREVENTING RELAPSE IN SCHIZOPHRENIA PATIENTS” (Minerva Neurosciences, Inc., priority 2022, published 2023)

Columns and labels:
Assay type in all cases: in vivo, human
[1] = test system: patients with negative symptoms of schizophrenia; assay: Study #1 (MIN-101C03): Personal and Social Performance (PSP); conditions: Week 12 DB; for Change from Baseline LS Mean: PSP Disturbing & Aggressive Behavior / Change from Baseline LS Mean: PSP Personal and Social Relationships / Change from Baseline LS Mean: PSP Self-care / Change from Baseline LS Mean: PSP Socially Useful Activities / Change from Baseline LS Mean: PSP Total Score (mapped from the 4 domains) / Effect Size vs Placebo: PSP Disturbing & Aggressive Behavior / Effect Size vs Placebo: PSP Personal and Social Relationships / Effect Size vs Placebo: PSP Self-care / Effect Size vs Placebo: PSP Socially Useful Activities / Effect Size vs Placebo: PSP Total Score (mapped from the 4 domains): ITT
Description: The PSP is a validated clinician-rated scale intended to reflect real-life situations that measures personal and social functioning in 4 domains: (a) socially useful activities, (b) personal and social relationships, (c) self-care, and (d) disturbing and aggressive behaviors. The score is based on the assessment of a patient's performance in the 4 domains. The PSP Total score is a single measurement of functioning ranging from 1 to 100, where a higher score represents better functioning. A score of 91 to 100 indicates excellent functioning in all 4 main areas; the patient is held in high consideration for their good qualities, copes adequately with life problems, and is involved in a wide range of interests and activities. A score of 1 to 10 indicates a lack of autonomy in basic functioning with extreme behaviors but without survival risk (score 6 to 10) or with survival risk (score 1 to 5). […] Review of the relevant scientific literature and the analysis of the psychometric properties of the 4 domains that result in the generation of the PSP Total score were supportive of the appropriateness and cross-cultural applicability of the use of the PSP in drug development for the indication of negative symptoms of schizophrenia The PSP was assessed at the timepoints described in Table 6. The changes from Baseline in the PSP Total score and individual domain scores after 12 weeks of treatment were exploratory efficacy endpoints in Study MIN-101C03, and the Total score was the key secondary efficacy endpoint and the PSP domain scores were exploratory endpoints in Study MIN-101C07.
(§1) Phase 2b Study #1 (also referred to herein as “MIN-101C03”) was a Phase 2b, double-blind (“DB”), placebo-controlled, randomized, multicenter 12-week study to evaluate the efficacy, safety, and tolerability of Roluperidone in patients ≥18 years to ≤60 years with negative symptoms of schizophrenia, followed by a 24-week open-label (“OL”) extension. The primary objective of the study was to evaluate the efficacy of Roluperidone compared to placebo in improving the negative symptoms of schizophrenia as measured by the change from Baseline in the PANSS negative factor score of the PSM (“PANSS PSM”) over 12 weeks of treatment.
(§2) The study consisted of a pretreatment screening period of up to 28 days (including washout), a 12-week, DB, placebo-controlled period, and a 24-week OL period. Eligible patients (who were symptomatically stable for at least 3 months and had scores of at least 20 on the PANSS negative subscale score) were randomized in a 1:1:1 ratio to receive oral Roluperidone (a modified-release, “MR”, formulation) 32 mg QD, Roluperidone 64 mg QD, or placebo for 12 weeks. […] During the 24-week, OL treatment extension period, patients who were initially randomized to Roluperidone 32 mg or 64 mg continued on the same dose, while patients who were initially randomized to placebo crossed over to Roluperidone 32 mg or 64 mg in a 1:1 ratio.

[2] = test system: patients with negative symptoms of schizophrenia; assay: Study #2 (MIN-101C07): Calgary Depression Scale for Schizophrenia; conditions: Week 12 DB, ITT
Description: Study #2 (also referred to as “MIN101C07”) was a Phase 3, randomized, DB, placebo-controlled, parallel-group 12-week study to evaluate the efficacy and safety of Roluperidone in patients ≥18 years to ≤55 years with negative symptoms of schizophrenia, followed by a 40-week OL extension. The study consisted of a pretreatment screening period of up to 28 days (including an antipsychotic medication washout period), a 12-week, DB, placebo-controlled period, and a 40-week OL period. Eligible patients (with moderate to severe negative symptoms of schizophrenia and stable positive symptoms but without severe symptoms of suspiciousness, agitation, hostility, uncooperativeness, or poor impulse control) were randomized 1:1:1 to receive Roluperidone 32 mg QD, Roluperidone 64 mg QD (GR01/B formulation, see U.S. Pat. No. 11,464,744), or placebo, orally, for 12 weeks. […] During the 40-week OL treatment extension, patients who were initially randomized to Roluperidone 32 mg or 64 mg continued treatment with the same dose, while patients who were initially randomized to placebo crossed over to Roluperidone 32 mg or 64 mg in a 1:1 ratio.

[3] = test system: patients with negative symptoms of schizophrenia; assay: Study #1 (MIN-101C03): CGI-S and CGI-I; conditions: Week 12 DB, ITT
Description: The CGI-S is a clinician-rated scale that is designed to rate the severity of the patient's illness at the time of assessment, including knowledge of the patient's history, psychosocial circumstances, symptoms, behavior, and the impact of the symptoms on the patient's ability to function relative to the clinician's past experience with patients who have the same diagnosis and similar improvement with treatment. Considering total clinical experience, a patient is assessed on severity of mental illness at the time of rating, where 1=normal (not at all ill); 2=borderline mentally ill; 3=mildly ill; 4=moderately ill; 5=markedly ill; 6=severely ill; or 7=extremely ill.
The CGI-S and CGI-I were assessed at the timepoints described in Table 7. The CGI-S and CGI-I were exploratory endpoints in Studies MIN-101C03 and MIN-101C07.
as §1, §2

1H-Isoindol-1-one,2-[ [1-[2-(4-fluorophenyl)-2-oxoethyl]-4-piperidinyl]methyl]-2,3-dihydro-, hydrochloride, hydrate (1:1:2) [Roluperidone]
Effect Size vs Placebo: 7-Point improvement in PSP Total Score responders ([1]; 32 mg QD): 0.05
Effect Size vs Placebo: 10-Point improvement in PSP Total Score responders ([1]; 32 mg QD): 0.05
Number of Patients with 7-Point improvement in PSP Total Score at Week 12 ([1]; 32 mg QD): 17/50
Number of Patients with 10-Point improvement in PSP Total Score at Week 12 ([1]; 32 mg QD): 17/50
Patients with 7-Point improvement in PSP Total Score at Week 12 (%) ([1]; 32 mg QD): (34%)
Patients with 10-Point improvement in PSP Total Score at Week 12 (%) ([1]; 32 mg QD): (34%)
Change from Baseline LS Mean: PSP Disturbing & Aggressive Behavior ([1]; 32 mg QD): −0.15
Change from Baseline LS Mean: PSP Personal and Social Relationships ([1]; 32 mg QD): −0.22
Change from Baseline LS Mean: PSP Self-care ([1]; 32 mg QD): −0.37
Change from Baseline LS Mean: PSP Socially Useful Activities ([1]; 32 mg QD): −0.41
Change from Baseline LS Mean: PSP Total Score (mapped from the 4 domains) ([1]; 32 mg QD): 1.77
Effect Size vs Placebo: PSP Disturbing & Aggressive Behavior ([1]; 32 mg QD): 0.36
Effect Size vs Placebo: PSP Personal and Social Relationships ([1]; 32 mg QD): 0.02
Effect Size vs Placebo: PSP Self-care ([1]; 32 mg QD): 0.27
Effect Size vs Placebo: PSP Socially Useful Activities ([1]; 32 mg QD): 0.14
Effect Size vs Placebo: PSP Total Score (mapped from the 4 domains) ([1]; 32 mg QD): −0.01
Effect Size vs Placebo: 7-Point improvement in PSP Total Score responders ([1]; 64 mg QD): 0.17
Effect Size vs Placebo: 10-Point improvement in PSP Total Score responders ([1]; 64 mg QD): 0.17
Number of Patients with 7-Point improvement in PSP Total Score at Week 12 ([1]; 64 mg QD): 26/54
Number of Patients with 10-Point improvement in PSP Total Score at Week 12 ([1]; 64 mg QD): 26/54
Change from Baseline LS Mean: PSP Disturbing & Aggressive Behavior ([1]; 64 mg QD): −0.24
Change from Baseline LS Mean: PSP Personal and Social Relationships ([1]; 64 mg QD): −0.56
Change from Baseline LS Mean: PSP Self-care ([1]; 64 mg QD): −0.48
Change from Baseline LS Mean: PSP Socially Useful Activities ([1]; 64 mg QD): −0.57
Change from Baseline LS Mean: PSP Total Score (mapped from the 4 domains) ([1]; 64 mg QD): 8.52
Effect Size vs Placebo: PSP Disturbing & Aggressive Behavior ([1]; 64 mg QD): 0.51
Effect Size vs Placebo: PSP Personal and Social Relationships ([1]; 64 mg QD): 0.53
Effect Size vs Placebo: PSP Self-care ([1]; 64 mg QD): 0.46
Effect Size vs Placebo: PSP Socially Useful Activities ([1]; 64 mg QD): 0.38
Effect Size vs Placebo: PSP Total Score (mapped from the 4 domains) ([1]; 64 mg QD): 0.56
Change from Baseline LS Mean: Calgary Depression Scale for Schizophrenia ([2]; 32 mg QD): −0.2
Effect Size (Cohen's d) vs Placebo: Calgary Depression Scale for Schizophrenia ([2]; 32 mg QD): 0.21
Change from Baseline LS Mean: Calgary Depression Scale for Schizophrenia ([2]; 64 mg QD): −0.1
Effect Size (Cohen's d) vs Placebo: Calgary Depression Scale for Schizophrenia ([2]; 64 mg QD): 0.14
Change from Baseline: Clinical Global Impression of Severity (observed change) ([3]; 32 mg QD): −0.40
Effect Size vs Placebo: Clinical Global Impression of Improvement ([3]; 32 mg QD): 0.33
Effect Size vs Placebo: Clinical Global Impression of Severity ([3]; 32 mg QD): 0.35
Change from Baseline: Clinical Global Impression of Severity (observed change) ([3]; 64 mg QD): −0.40 (0.1)
Effect Size vs Placebo: Clinical Global Impression of Improvement ([3]; 64 mg QD): 0.57
Effect Size vs Placebo: Clinical Global Impression of Severity ([3]; 64 mg QD): 0.43
